Results reported in the NIST ThermoML archive (doi:10.1016/j.fluid.2016.02.030).
± gives the expanded uncertainty stated by the source.

Assay: osmotic coefficient (dimensionless); mn = molality of the nth substance listed, in mol/kg
Details: 308.15 K, Liquid, omometer

OC[C@@H](O)[C@@H](O[C@H]1O[C@H](CO)[C@@H](O)[C@H](O)[C@H]1O)[C@H](O)[C@@H](O)CO [4-O-α-D-glucopyranosyl-D-glucitol] + O
Details | osmotic coefficient
m1 = 0.0292 | 0.9903 ± 0.002
m1 = 0.1187 | 0.9976 ± 0.002
m1 = 0.219 | 1.012 ± 0.002
m1 = 0.3226 | 1.019 ± 0.0021
m1 = 0.4282 | 1.028 ± 0.0022
m1 = 0.5127 | 1.031 ± 0.0023
m1 = 0.5925 | 1.032 ± 0.0023
m1 = 0.774 | 1.049 ± 0.0026
m1 = 0.9158 | 1.06 ± 0.0029
m1 = 1.054 | 1.067 ± 0.0031
m1 = 1.261 | 1.081 ± 0.0035
m1 = 1.918 | 1.151 ± 0.0058
m1 = 2.645 | 1.217 ± 0.0084
m1 = 3.591 | 1.272 ± 0.011

O=C[C@H](O)[C@@H](O)[C@H](O[C@@H]1O[C@H](CO)[C@H](O)[C@H](O)[C@H]1O)[C@H](O)CO [4-O-β-D-galactopyranosyl-D-glucose] + O
Details | osmotic coefficient
m1 = 0.014 | 0.9946 ± 0.002
m1 = 0.0578 | 1.011 ± 0.002
m1 = 0.1025 | 1.022 ± 0.0022
m1 = 0.1286 | 1.03 ± 0.0023
m1 = 0.1795 | 1.046 ± 0.0026
m1 = 0.2313 | 1.058 ± 0.0029
m1 = 0.2909 | 1.065 ± 0.003
m1 = 0.3217 | 1.067 ± 0.0031

O=C[C@H](O)[C@@H](O)[C@@H](O)[C@H](O)CO [(+)-galactose] + O
Details | osmotic coefficient
m1 = 0.0558 | 0.9999 ± 0.002
m1 = 0.1149 | 1.001 ± 0.002
m1 = 0.1727 | 1.004 ± 0.002
m1 = 0.2306 | 1.003 ± 0.002
m1 = 0.2878 | 1.004 ± 0.002
m1 = 0.3548 | 1.006 ± 0.002
m1 = 0.4098 | 1.006 ± 0.002
m1 = 0.4829 | 1.007 ± 0.002
m1 = 0.5526 | 1.008 ± 0.002
m1 = 0.6174 | 1.008 ± 0.002
m1 = 0.6818 | 1.009 ± 0.002
m1 = 0.7847 | 1.01 ± 0.002
m1 = 0.8958 | 1.011 ± 0.002
m1 = 1.009 | 1.012 ± 0.002
m1 = 1.138 | 1.013 ± 0.0021
m1 = 1.308 | 1.016 ± 0.0021
m1 = 1.85 | 1.025 ± 0.0022
m1 = 2.61 | 1.045 ± 0.0026

O=C(CO)[C@@H](O)[C@H](O)[C@H](O)CO [D-fructose] + O
Details | osmotic coefficient
m1 = 0.0559 | 0.9986 ± 0.002
m1 = 0.1125 | 0.9958 ± 0.002
m1 = 0.1714 | 0.9944 ± 0.002
m1 = 0.2296 | 0.9949 ± 0.002
m1 = 0.2923 | 0.9947 ± 0.002
m1 = 0.3466 | 0.9945 ± 0.002
m1 = 0.4185 | 0.9946 ± 0.002
m1 = 0.4792 | 0.9949 ± 0.002
m1 = 0.5468 | 0.9947 ± 0.002
m1 = 0.614 | 0.9951 ± 0.002
m1 = 0.6925 | 0.9951 ± 0.002
m1 = 0.7872 | 0.9955 ± 0.002
m1 = 0.9018 | 0.995 ± 0.002
m1 = 1.022 | 0.9947 ± 0.002
m1 = 1.139 | 0.9949 ± 0.002
m1 = 1.266 | 0.9949 ± 0.002
m1 = 1.741 | 0.9972 ± 0.002
m1 = 2.401 | 1.006 ± 0.002
m1 = 2.95 | 1.014 ± 0.0021
m1 = 3.625 | 1.027 ± 0.0022
m1 = 5.424 | 1.069 ± 0.0031

O=C[C@H](O)[C@@H](O)[C@H](O)[C@H](O)CO [D-glucose] + O
Details | osmotic coefficient
m1 = 0.0557 | 1.002 ± 0.002
m1 = 0.1126 | 1.005 ± 0.002
m1 = 0.1685 | 1.004 ± 0.002
m1 = 0.2236 | 1.004 ± 0.002
m1 = 0.2913 | 1.004 ± 0.002
m1 = 0.3539 | 1.005 ± 0.002
m1 = 0.4081 | 1.006 ± 0.002
m1 = 0.4775 | 1.006 ± 0.002
m1 = 0.5382 | 1.006 ± 0.002
m1 = 0.5708 | 1.008 ± 0.002
m1 = 0.6209 | 1.008 ± 0.002
m1 = 0.6815 | 1.008 ± 0.002
m1 = 0.7347 | 1.009 ± 0.002
m1 = 0.7963 | 1.009 ± 0.002
m1 = 0.9085 | 1.01 ± 0.002
m1 = 1.019 | 1.012 ± 0.002
m1 = 1.109 | 1.014 ± 0.0021
m1 = 1.215 | 1.015 ± 0.0021
m1 = 1.323 | 1.017 ± 0.0021
m1 = 1.569 | 1.022 ± 0.0022
m1 = 1.841 | 1.03 ± 0.0023
m1 = 2.386 | 1.044 ± 0.0025
m1 = 2.945 | 1.061 ± 0.0029
m1 = 3.626 | 1.078 ± 0.0034
m1 = 4.847 | 1.11 ± 0.0044

O=C[C@@H](O)[C@@H](O)[C@H](O)[C@H](O)CO [D-mannose] + O
Details | osmotic coefficient
m1 = 0.1128 | 0.9933 ± 0.002
m1 = 0.2298 | 0.989 ± 0.002
m1 = 0.3533 | 0.984 ± 0.0021
m1 = 0.4798 | 0.9828 ± 0.0021
m1 = 0.6097 | 0.9824 ± 0.0021
m1 = 0.7659 | 0.9832 ± 0.0021
m1 = 0.9375 | 0.9836 ± 0.0021
m1 = 1.117 | 0.9842 ± 0.0021
m1 = 1.304 | 0.9852 ± 0.0021
m1 = 1.829 | 0.9903 ± 0.002
m1 = 2.544 | 0.9978 ± 0.002
m1 = 3.659 | 1.017 ± 0.0021

OC[C@H]1O[C@H](OC[C@H]2O[C@H](O[C@]3(CO)O[C@H](CO)[C@@H](O)[C@@H]3O)[C@H](O)[C@@H](O)[C@@H]2O)[C@H](O)[C@@H](O)[C@H]1O [D-raffinose] + O
Details | osmotic coefficient
m1 = 0.0343 | 1.002 ± 0.002
m1 = 0.1059 | 1.025 ± 0.0022
m1 = 0.1837 | 1.04 ± 0.0025
m1 = 0.2667 | 1.062 ± 0.003
m1 = 0.3581 | 1.083 ± 0.0036
m1 = 0.4515 | 1.117 ± 0.0046
m1 = 0.4902 | 1.134 ± 0.0052
m1 = 0.6205 | 1.168 ± 0.0065
